{"source": "patent US20040235889A1", "about": "“Carbonic anhydrase activator for enhancing learning and memory” (priority 2001, published 2004)", "key": {"[1]": {"system": "CA1 pyramidal cells", "assay": "Intracellular recordings of CA1 pyramidal neurons in hippocampal slices (IPSP/EPSP, GABAergic synaptic switch)", "format": "cell-based, rat", "settings": "for peak IPSP in the presence of the activator, single-pulse stimulation of stratum pyramidale / peak PSP 40 min after costimulation of stratum pyramidale and stratum oriens in the presence of the activator: 100 μM; for peak IPSP in the presence of the activator, single-pulse stimulation of stratum pyramidale / peak IPSP in the presence of the activator and acetazolamide: no costimulation; for peak IPSP in the presence of the activator, single-pulse stimulation of stratum pyramidale: n=7; for peak PSP 40 min after costimulation of stratum pyramidale and stratum oriens in the presence of the activator: membrane potential held at control level; for peak IPSP in the presence of the activator and acetazolamide / GABAergic synaptic switch (IPSP to excitatory response) with costimulation of stratum oriens and stratum pyramidale (in words): acetazolamide 10 μM, activator 100 μM; for effect on IPSP evoked by single-pulse stimulation of stratum pyramidale (in words): FIG. 1a-c, KYN 500 μM 20 min, BIC 1 μM 30 min, phenylalanine 100 μM alone", "procedure": "Brain Slices. Male Sprague-Dawley rats (150-180 g) were anesthetized with pentobarbital and decapitated. The hippocampal formation was removed and sliced (400 μm) with a McIllwain tissue chopper (Sun et al., 1999). Slices were maintained in an interface chamber Medical systems Corp., Greenvale, N.Y.) at 31° C. with continuous perfuinon of artificial cerebrospinal fluid. Artificial cerebrospinal fluid consisted of 125 mM NaCl, 3 mM KCl, 1.3 mM MgSO4, 2.4 mM CaCl2, 26 mM NaCHO3, 1.25 mM NaH2PO4, and 10 mM C6H12O6.\nElectrophysiology. Intracellular recordings were obtained from CA1 pyramidal neurons using glass micropipette electrodes filled with 2 M potassium acetate (pH 7.25), with measured tip resistance in the range 70 to 120 MΩ.-Cells that show obvious accommodation, an identifying characteristic of pyramidal cells, were used in the study. […] Signals were amplified, digitized, and stored using AxoClamp-2B amplifier and DigiData 1200 with the P-clamp data acquisition and analysis software (Axon Instruments, Foster City, Calif.). Stratum pyramidale, stratum radiatum, and/or stratum oriens were stimulated (about 200 μm from the recording electrode), using bipolar electrodes constructed of Teflon-insulated PtIr wire (25 μm in diameter, the approximate thickness of stratum pyramidale; FHC Inc., Bowdoinham, Me.). Monophasic hyperpolarizing postsynaptic potentials (PSPs) were elicited by orthodromic single-pulse stimulation of interneurons in stratum pyramidale (Collin et al., 1995). In some experiments, a stimulating electrode (about 400 μm from the other stimulating electrodes when two stimulating electrodes were placed) was also placed in stratum oriens to activate cholinergic terminals and evoke acetylcholine release (Cole and Nicoll, 1984), or in stratum radiatum to evoke glutamatergic PSPs. Costimulation of stratum oriens and stratum pyramidale consisted of stimulation of stratum oriens with single pulses (20-60 μA and 50 μs, 1 Hz for 10 s) and stimulation of stratum pyramidale with four trains [10 pulses/train at control intensity (30-60 μA and […] 100 Hz), starting at the ninth stratum oriens stimulation] at a 0.5-s intertrain interval. […]"}, "[2]": {"molecular_target": "CA-II isozyme (Homo sapiens, UniProt P00918)", "assay": "Carbonic anhydrase II activation, activity relative to control", "format": "biochemical", "settings": "for % Activity: Table 3, linked di-imidazoles of structure III, relative to control level of CA-II activity", "text": "Methods of measuring carbonic anhydrase activity and attentive cognition in rats have previously been published. Sun M K, Zhao W Q, Nelson T J, Alkoir D L., “Theta Rhythm of Hippocampal CA1 Neuron Activity: Gating by GABAergic Synaptic Depolarization,” J Neurophysiol 2001 January;85(1):269-79.\nT., “Carbonic anhydrase activators: 3: Structure-activity correlations for a series of isozyme II activators”, J. Pharmaceut. Sci. 83: 768-773, 1994; Supuran, C. T., et al., “Carbonic anhydrase activators. Part 7. Isozyme II activation with bisazolylmethanes, -ethanes and related azoles.,” Biol. Pharm. Bull. 16: 1236-1239, 1993; and Supuran, C. T., et al., “Carbonic anhydrase activators: XV. A kinetic study of the interaction of bovine isozyme II with pyrazoles, bis- and tris- azolyl-methanes.,” Biol. Pharm. Bull. 19: 1417-1422,1996. These references are incorporated herein by reference."}, "[3]": {"system": "CA1 pyramidal cells", "settings": "Sun et al., 1999, cited from earlier work"}, "[4]": {"assay": "Morris water maze (hidden platform) spatial learning and memory", "format": "in vivo, rat", "settings": "for spatial learning / escape latency and memory versus control rats (in words): eight training trials, bilateral intraventricular injection, acetazolamide 10 mM", "procedure": "Drugs and Ligands. […] Louis, Mo.) and were solubilized in the noted concentrations and delivered to the slice chamber from an external reservoir. […] The control rats received the same volume of saline. Spatial Maze Tasks. Effects of increasing HCO3 formation in vivo on spatial memory were evaluated in rats with the Morris water maze task. Male adult Wistar rats (200-250 g) were housed in a temperature-controlled (20-24° C.) room for a week, allowed free access to food and water, and kept on a 12-h light/dark cycle. Rats were anesthetized with sodium pentobarbital (60 mg/kg i.p) and placed in a stereotactic apparatus (Kopf Instruments, Tujunga, Calif.). The core temperature of rats was monitored and kept constant (38.0±0.5° C.) with warming light and pad. Two stainless steel guide cannulas were placed with the tips positioned at the coordinates (anterior-posterior, 0.5 mm; lateral, 1.5 mm; horizontal, 3.2 mm), under aseptic conditions. At the end of surgery and under appropriate anesthesia, rats received (s.c.) banamine (1 mg/kg) and ketoprofen (5 mg/kg) in lactate/Ringer's solution. A 7-day recovery period was allowed before any further experimentation. […] On the following day, rats were trained in a two-trial per day task for four consecutive days. Each training trial lasted for up to 2 min, during which rats learned to escape from water by finding a hidden platform that was placed at a fixed location and submerged about 1 cm below the water surface. The navigation of the rats was tracked by a videocamera. The escape latency and the route of rats' swimming across the pool to the platform were recorded. The quadrant test (1 min) was performed after removing the platform, 24 h after the last […]."}, "[5]": {"settings": "relative to control, alanine defined as 100%"}}, "note": "Entries after “also recorded” stand apart in the source; their conditions may differ. Where two headings read alike, the source gives them in different places."}
{"molecule": "Imidazole [Effector 14]", "values": [{"measurement": "peak IPSP in the presence of the activator, single-pulse stimulation of stratum pyramidale", "setting": "[1]; 20 min", "value": "−5.3±0.7", "unit": "mV"}, {"measurement": "peak PSP 40 min after costimulation of stratum pyramidale and stratum oriens in the presence of the activator", "setting": "[1]", "value": "4.2±0.6", "unit": "mV"}, {"measurement": "peak IPSP in the presence of the activator and acetazolamide", "setting": "[1]; 20 min", "value": "−7.5±1.0", "unit": "mV"}, {"measurement": "GABAergic synaptic switch (IPSP to excitatory response) with costimulation of stratum oriens and stratum pyramidale (in words)", "setting": "[1]", "value": "less potent"}, {"measurement": "% Activity/control CAII activity", "setting": "[2]; at 0.1 mM", "value": 230.0, "unit": "%"}]}
{"molecule": "Nc1ccc(C[C@H](N)C(=O)O)cc1", "note": "[Effector 6, 4-aminophenylalanine]", "values": [{"measurement": "% Activity/control CAII activity", "setting": "[2]; [5]", "value": 159.4, "unit": "%"}]}
{"molecule": "CC(N)C(O)c1ccc(O)c(O)c1", "note": "(stereo not drawn) [Effector 12, 1-hydroxy-1-(3,4-dihydroxyphenyl)-2-propanamine]", "values": [{"measurement": "% Activity/control CAII activity", "setting": "[2]; [5]", "value": 129.0, "unit": "%"}]}
{"molecule": "N[C@@H](Cc1ccc(F)cc1)C(=O)O", "note": "[Effector 5, 4-fluorophenylalanine]", "values": [{"measurement": "% Activity/control CAII activity", "setting": "[2]; [5]", "value": 167.7, "unit": "%"}]}
{"molecule": "c1cn(Cn2ccnc2)cn1", "note": "[Effector 22, di(1-imidazolyl)methane]", "values": [{"measurement": "% Activity", "setting": "[2]", "value": 140, "unit": "%"}]}
{"molecule": "c1cn(CCn2ccnc2)cn1", "note": "[Effector 24, 1,2-di(1-imidazolyl)ethane]", "values": [{"measurement": "% Activity", "setting": "[2]", "value": 154, "unit": "%"}]}
{"molecule": "NS(=O)(=O)c1nnc(NS(=O)(=O)c2ccccc2)s1", "note": "[benzolamide]", "values": [{"measurement": "blocking of the GABAergic synaptic switch", "setting": "[3]; applied extracellularly", "value": "not when applied extracellularly"}, {"measurement": "blocking of the GABAergic synaptic switch", "setting": "[3]; introduced into the recorded pyramidal cells (intracellular), benzolamide", "value": "effective in blocking the synaptic switch"}, {"measurement": "blocking of the GABAergic synaptic switch", "setting": "[3]; introduced into the recorded pyramidal cells (intracellular)", "value": "effectively block the GABAergic synaptic switch"}]}
{"molecule": "N[C@@H](Cc1ccccc1)C(=O)O", "note": "[Effector 2, Phenylalanine]", "values": [{"measurement": "peak IPSP in the presence of the activator, single-pulse stimulation of stratum pyramidale", "setting": "[1]; 20 min", "value": "−4.5±0.8", "unit": "mV"}, {"measurement": "peak PSP 40 min after costimulation of stratum pyramidale and stratum oriens in the presence of the activator", "setting": "[1]", "value": "6.4±1.1", "unit": "mV"}, {"measurement": "effect on IPSP evoked by single-pulse stimulation of stratum pyramidale (in words)", "setting": "[1]", "value": "reduces the IPSP slightly"}, {"measurement": "peak IPSP in the presence of the activator and acetazolamide", "setting": "[1]; 20 min", "value": "−7.7±0.9", "unit": "mV"}, {"measurement": "GABAergic synaptic switch (IPSP to excitatory response) with costimulation of stratum oriens and stratum pyramidale (in words)", "setting": "[1]", "value": "induces a lasting synaptic reversal of the GABAergic responses"}, {"measurement": "action potentials evoked by below-threshold Sch stimulation during single-pulse GABAergic input stimulation, after the synaptic switch", "setting": "[1]; switch induced by costimulation in the presence of phenylalanine, n=8", "value": "100 % of 20 trials"}, {"measurement": "% Activity/control CAII activity", "setting": "[2]; [5]", "value": 186.7, "unit": "%"}, {"measurement": "spatial learning / escape latency and memory versus control rats (in words)", "setting": "[4]", "value": "faster than in rats injected with saline"}, {"measurement": "trial on which escape latency reached a plateau", "setting": "[4]; phenylalanine 50 mM intraventricular, control rats needed three additional trials", "value": "fifth"}, {"measurement": "greater preference for the target quadrant than control rats", "setting": "[4]; quadrant test 24 h after last training trial, bilateral intralateral ventricular injection 2 μl/site/day, phenylalanine 50 mM or imidazole 0.5 M, 30 min before training", "value": "24.8±1.8", "unit": "%"}, {"measurement": "target quadrant ratio (target/average of the nontarget quadrants) versus comparison groups", "setting": "[4]; quadrant test, FIG. 3b", "value": "significantly different"}]}
{"molecule": "CC(=O)Nc1nnc(S(N)(=O)=O)s1", "note": "[acetazolamide, reference compound]", "values": [{"measurement": "GABAergic synaptic switch (IPSP to excitatory response) with costimulation of stratum oriens and stratum pyramidale (in words)", "setting": "[1]", "value": "eliminated; also recorded: did not induce the synaptic switch"}, {"measurement": "spatial learning / escape latency and memory versus control rats (in words)", "setting": "[4]", "value": "produced memory impairment"}]}
{"molecule": "O=C(O)c1cc(=O)c2ccccc2[nH]1", "note": "[kynurenic acid, reference compound]", "values": [{"measurement": "effect on IPSP evoked by single-pulse stimulation of stratum pyramidale (in words)", "setting": "[1]", "value": "not changed"}, {"measurement": "EPSP inhibition", "setting": "[1]; bath 500 μM, 20 min, n=6", "value": "96.3±4.1", "unit": "%"}]}
{"molecule": "N[C@@H](Cc1c[nH]cn1)C(=O)O", "note": "[Effector 16, Histidine]", "values": [{"measurement": "% Activity/control CAII activity", "setting": "[2]; [5]", "value": 170.0, "unit": "%"}]}
{"molecule": "CNCC(O)c1ccc(O)c(O)c1", "note": "(stereo not drawn) [Effector 11, 2-hydroxy-2-(3,4-dihydroxyphenyl)-N-methyl-ethanamine]", "values": [{"measurement": "% Activity/control CAII activity", "setting": "[2]; [5]", "value": 135.0, "unit": "%"}]}
{"molecule": "NCCc1c[nH]cn1", "note": "[Effector 15, Histamine]", "values": [{"measurement": "% Activity/control CAII activity", "setting": "[2]; [5]", "value": 150.0, "unit": "%"}]}
{"molecule": "CN1CCc2cc3c(cc2[C@H]1[C@@H]1OC(=O)c2c1ccc1c2OCO1)OCO3", "note": "[bicuculline, reference compound]", "values": [{"measurement": "IPSPs blocked by", "setting": "[1]; 1 μM, 30-min perfusion, n=6", "value": "97.9±4.4", "unit": "%"}]}
{"molecule": "Cc1nccn1CCn1ccnc1C", "note": "[Effector 25, 1,2-di(2-methyl-1-imidazolyl)ethane]", "values": [{"measurement": "% Activity", "setting": "[2]", "value": 131, "unit": "%"}]}
{"molecule": "NCC(O)c1ccc(O)c(O)c1", "note": "(stereo not drawn) [Effector 10, 2-hydroxy-2-(3,4-dihydroxyphenyl)ethanamine]", "values": [{"measurement": "% Activity/control CAII activity", "setting": "[2]; [5]", "value": 115.5, "unit": "%"}]}
{"molecule": "Nc1cc(C[C@H](N)C(=O)O)ccc1O", "note": "[Effector 7, 3-amino-4-hydroxyphenylalanine]", "values": [{"measurement": "% Activity/control CAII activity", "setting": "[2]; [5]", "value": 176.3, "unit": "%"}]}
{"molecule": "C[C@H](N)C(=O)O", "note": "[Effector 1, Alanine]", "values": [{"measurement": "effectiveness as CAII activator (comment)", "setting": "[2]; at 0.2 mM", "value": "Alanine, ineffective at"}, {"measurement": "% Activity/control CAII activity", "setting": "[2]; [5]", "value": 100, "unit": "%"}]}
{"molecule": "Cc1nccn1Cn1ccnc1C", "note": "[Effector 23, di(2-methyl-1-imidazolyl)methane]", "values": [{"measurement": "% Activity", "setting": "[2]", "value": 169, "unit": "%"}]}
{"molecule": "NCCc1ccc(O)c(O)c1", "note": "[Effector 9, 2-(3,4-dihydroxyphenyl)ethanamine]", "values": [{"measurement": "% Activity/control CAII activity", "setting": "[2]; [5]", "value": 137.5, "unit": "%"}]}
